Laboratory results published in PubChem BioAssay (NCI).
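Five compound concentrations were applied to cells in 96-well plates for 48 hours; endpoints were derived by simple linear interpolation of the resulting dose-response curve. GI50 marks 50% less growth. At the TGI there is no net growth.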

Tests used:
Assay in all cases: NCI tumour cell line growth inhibition, 48 h
SNB-19 CNS = tested on: SNB-19 CNS
ACHN renal = tested on: ACHN renal
MCF7 breast = tested on: MCF7 breast
DU-145 prostate = tested on: DU-145 prostate
SK-MEL-28 melanoma = tested on: SK-MEL-28 melanoma
IGROV1 ovarian = tested on: IGROV1 ovarian
SF-539 CNS = tested on: SF-539 CNS
NCI-H460 lung = tested on: NCI-H460 lung
LOX IMVI melanoma = tested on: LOX IMVI melanoma
HL-60(TB) leukemia = tested on: HL-60(TB) leukemia
HCT-116 colon = tested on: HCT-116 colon
NCI-H23 lung = tested on: NCI-H23 lung
TK-10 renal = tested on: TK-10 renal
OVCAR-8 ovarian = tested on: OVCAR-8 ovarian
SR leukemia = tested on: SR leukemia
OVCAR-5 ovarian = tested on: OVCAR-5 ovarian
KM12 colon = tested on: KM12 colon
NCI-H226 lung = tested on: NCI-H226 lung
OVCAR-4 ovarian = tested on: OVCAR-4 ovarian
SK-MEL-2 melanoma = tested on: SK-MEL-2 melanoma
K-562 leukemia = tested on: K-562 leukemia
CAKI-1 renal = tested on: CAKI-1 renal
MOLT-4 leukemia = tested on: MOLT-4 leukemia
SK-MEL-5 melanoma = tested on: SK-MEL-5 melanoma
RPMI-8226 leukemia = tested on: RPMI-8226 leukemia
MDA-MB-231 breast = tested on: MDA-MB-231 breast
U251 CNS = tested on: U251 CNS
SW-620 colon = tested on: SW-620 colon
HOP-92 NSCLC = tested on: HOP-92 NSCLC
HOP-62 NSCLC = tested on: HOP-62 NSCLC
HT29 colon = tested on: HT29 colon
T-47D breast = tested on: T-47D breast
OVCAR-3 ovarian = tested on: OVCAR-3 ovarian
UO-31 renal = tested on: UO-31 renal
MDA-MB-435 = tested on: MDA-MB-435
HS 578T breast = tested on: HS 578T breast
HCT-15 colon = tested on: HCT-15 colon
HCC-2998 colon = tested on: HCC-2998 colon
UACC-62 melanoma = tested on: UACC-62 melanoma
NCI-H522 lung = tested on: NCI-H522 lung
SF-268 CNS = tested on: SF-268 CNS
SK-OV-3 ovarian = tested on: SK-OV-3 ovarian
786-0 renal = tested on: 786-0 renal
SNB-75 CNS = tested on: SNB-75 CNS
CCRF-CEM leukemia = tested on: CCRF-CEM leukemia
BT-549 breast = tested on: BT-549 breast
M14 melanoma = tested on: M14 melanoma
EKVX NSCLC = tested on: EKVX NSCLC
MALME-3M melanoma = tested on: MALME-3M melanoma
A498 renal = tested on: A498 renal
A549 NSCLC = tested on: A549 NSCLC
COLO 205 colon = tested on: COLO 205 colon
SN12C renal = tested on: SN12C renal
NCI/ADR-RES ovarian = tested on: NCI/ADR-RES ovarian

SMILES: COc1ccccc1OCC(=O)Nc1sc2c(c1C(N)=O)CCC2
- GI50 (SNB-19 CNS): > 100 µM
- TGI (SNB-19 CNS): > 100 µM
- GI50 (ACHN renal): > 100 µM
- TGI (ACHN renal): > 100 µM
- GI50 (MCF7 breast): > 100 µM
- TGI (MCF7 breast): > 100 µM
- GI50 (DU-145 prostate): > 100 µM
- TGI (DU-145 prostate): > 100 µM
- GI50 (SK-MEL-28 melanoma): > 100 µM
- TGI (SK-MEL-28 melanoma): > 100 µM
- GI50 (IGROV1 ovarian): > 100 µM
- TGI (IGROV1 ovarian): > 100 µM
- GI50 (SF-539 CNS): > 100 µM
- TGI (SF-539 CNS): > 100 µM
- GI50 (NCI-H460 lung): > 100 µM
- TGI (NCI-H460 lung): > 100 µM
- GI50 (LOX IMVI melanoma): > 100 µM
- TGI (LOX IMVI melanoma): > 100 µM
- GI50 (HL-60(TB) leukemia): > 100 µM
- TGI (HL-60(TB) leukemia): > 100 µM
- GI50 (HCT-116 colon): > 100 µM
- TGI (HCT-116 colon): > 100 µM
- GI50 (NCI-H23 lung): > 100 µM
- TGI (NCI-H23 lung): > 100 µM
- GI50 (TK-10 renal): > 100 µM
- TGI (TK-10 renal): > 100 µM
- GI50 (OVCAR-8 ovarian): 12.7 µM
- TGI (OVCAR-8 ovarian): > 100 µM
- GI50 (SR leukemia): > 100 µM
- TGI (SR leukemia): > 100 µM
- GI50 (OVCAR-5 ovarian): > 100 µM
- TGI (OVCAR-5 ovarian): > 100 µM
- GI50 (KM12 colon): > 100 µM
- TGI (KM12 colon): > 100 µM
- GI50 (NCI-H226 lung): 44.3 µM
- TGI (NCI-H226 lung): > 100 µM
- GI50 (OVCAR-4 ovarian): > 100 µM
- TGI (OVCAR-4 ovarian): > 100 µM
- TGI (SK-MEL-2 melanoma): 68 µM
- GI50 (K-562 leukemia): > 100 µM
- TGI (K-562 leukemia): > 100 µM
- GI50 (CAKI-1 renal): > 100 µM
- TGI (CAKI-1 renal): > 100 µM
- GI50 (MOLT-4 leukemia): > 100 µM
- TGI (MOLT-4 leukemia): > 100 µM
- GI50 (SK-MEL-5 melanoma): 70.6 µM
- TGI (SK-MEL-5 melanoma): > 100 µM
- GI50 (RPMI-8226 leukemia): > 100 µM
- TGI (RPMI-8226 leukemia): > 100 µM
- GI50 (MDA-MB-231 breast): > 100 µM
- TGI (MDA-MB-231 breast): > 100 µM
- GI50 (U251 CNS): > 100 µM
- TGI (U251 CNS): > 100 µM
- GI50 (SW-620 colon): > 100 µM
- TGI (SW-620 colon): > 100 µM
- GI50 (HOP-92 NSCLC): > 100 µM
- TGI (HOP-92 NSCLC): > 100 µM
- GI50 (HOP-62 NSCLC): > 100 µM
- TGI (HOP-62 NSCLC): > 100 µM
- GI50 (HT29 colon): > 100 µM
- TGI (HT29 colon): > 100 µM
- GI50 (T-47D breast): > 100 µM
- TGI (T-47D breast): > 100 µM
- GI50 (OVCAR-3 ovarian): > 100 µM
- TGI (OVCAR-3 ovarian): > 100 µM
- GI50 (UO-31 renal): > 100 µM
- TGI (UO-31 renal): > 100 µM
- GI50 (MDA-MB-435): > 100 µM
- TGI (MDA-MB-435): > 100 µM
- GI50 (HS 578T breast): > 100 µM
- TGI (HS 578T breast): > 100 µM
- GI50 (HCT-15 colon): 33.4 µM
- TGI (HCT-15 colon): > 100 µM
- GI50 (HCC-2998 colon): > 100 µM
- TGI (HCC-2998 colon): > 100 µM
- GI50 (UACC-62 melanoma): 38.1 µM
- TGI (UACC-62 melanoma): > 100 µM
- GI50 (NCI-H522 lung): > 100 µM
- TGI (NCI-H522 lung): > 100 µM
- GI50 (SF-268 CNS): > 100 µM
- TGI (SF-268 CNS): > 100 µM
- GI50 (SK-OV-3 ovarian): > 100 µM
- TGI (SK-OV-3 ovarian): > 100 µM
- GI50 (786-0 renal): > 100 µM
- TGI (786-0 renal): > 100 µM
- GI50 (SNB-75 CNS): > 100 µM
- TGI (SNB-75 CNS): > 100 µM
- GI50 (CCRF-CEM leukemia): > 100 µM
- TGI (CCRF-CEM leukemia): > 100 µM
- GI50 (BT-549 breast): > 100 µM
- TGI (BT-549 breast): > 100 µM
- GI50 (M14 melanoma): > 100 µM
- TGI (M14 melanoma): > 100 µM
- GI50 (EKVX NSCLC): > 100 µM
- TGI (EKVX NSCLC): > 100 µM
- GI50 (MALME-3M melanoma): > 100 µM
- TGI (MALME-3M melanoma): > 100 µM
- GI50 (A498 renal): > 100 µM
- TGI (A498 renal): > 100 µM
- GI50 (A549 NSCLC): 32.4 µM
- TGI (A549 NSCLC): > 100 µM
- GI50 (COLO 205 colon): > 100 µM
- TGI (COLO 205 colon): > 100 µM
- GI50 (SN12C renal): > 100 µM
- TGI (SN12C renal): > 100 µM
- GI50 (NCI/ADR-RES ovarian): > 100 µM
- TGI (NCI/ADR-RES ovarian): > 100 µM
